Assay results as given in patent publication US4443459A, “α-Tocopheryl ester of 5-substituted picolinic acid and hypotensive composition containing it” (Banyu Pharmaceutical Co., Ltd., priority 1981, dated 1984).

What was measured:
[1] = system: stomach of rats; assay: Side-effects: gastric trouble after oral administration for 4 consecutive days; assay type: in vivo, rat; settings: 100 mg/kg
Method: dl-α-Tocopheryl 5-butylpicolinate of the invention and 5-butylpicolinic acid as a control were administered orally to rats for 4 consecutive days at a dose of 300 mg/kg (90.9 mg/kg calculated for 5-butylpicolinic acid) and 100 mg/kg. Then, the stomach of each rat was incised and observed for the occurrence of a gastric trouble.

[2] = in vivo; settings: mouse
Method: ddY-Strain female mice (body weight about 20 g), five per group, were used and each of the test compounds was orally or intraperitoneally administered, and two days after the administration, the number of dead mice was counted. From it, the acute toxicity LD50 of each of the compounds was determined by the Behrens-Kraerber method.

[3] = system: Normotensive Wistar rats; assay: Hypotensive action in normotensive Wistar rats, oral (tail artery pressure, plethysmography; Table 2); assay type: in vivo, rat (Wistar, female); settings: 50 mg/kg oral, normotensive Wistar rats
Description: (§1) dl-α-tocopheryl 5-butylpicolinate and dl-α-tocopherol were used after they were each dissolved in a suitable amount of ethyl ether, mixed with a solution containing 2% of Tween 80 and 2% of Span 40 and after removing ethyl ether, uniformly emulsified. 5-Butylpicolinic acid was used as a solution in 2% Tween 80+2% Span.
(§2) Spontaneous hypertensive rats (male, body weight 350 to 370 g) and Wistar rats with a normal blood pressure level (female, body weight 250 to270 g), three per group, were used. Without anesthesia, the pressure of the tail artery was measured by plethysmography.

[4] = system: Spontaneous hypertensive rats; assay: Hypotensive action in spontaneous hypertensive rats, oral (tail artery pressure, plethysmography; Table 1); assay type: in vivo, rat (spontaneous hypertensive, male); settings: spontaneous hypertensive rats
Description: as §1, §2

Structure (SMILES): CCCCc1ccc(C(=O)O)nc1 [B, 5-butylpicolinic acid, reference compound]
- occurrence of gastric trouble [1]: Light degrees of edema, congestion, or bleeding were noted in the stomachs of all cases (five rats)
- LD50 at 48 h ([2]; ip): 89 mg/kg
- LD50 at 48 h ([2]; po): 180 mg/kg
- Blood pressure lowering rate, 1h ([3]; 1h): 27.0%
- Blood pressure lowering rate, 2h ([3]; 2h): 33.5%
- Blood pressure lowering rate, 3h ([3]; 3h): 26.2%
- Blood pressure lowering rate, 4h ([3]; 4h): 0%
- Blood pressure lowering rate, 1h ([4]; 3.125 mg/kg oral): 16.9%
- Blood pressure lowering rate, 2h ([4]; 3.125 mg/kg oral): 0.7%
- Blood pressure lowering rate, 3h ([4]; 3.125 mg/kg oral): 0%
- Blood pressure lowering rate, 4h ([4]; 3.125 mg/kg oral): 0%
- Blood pressure lowering rate, 1h ([4]; 12.5 mg/kg oral): 35.7%
- Blood pressure lowering rate, 2h ([4]; 12.5 mg/kg oral): 21.7%
- Blood pressure lowering rate, 3h ([4]; 12.5 mg/kg oral): 11.8%
- Blood pressure lowering rate, 4h ([4]; 12.5 mg/kg oral): 0%
